These results are taken from article PMC3956608 (PLoS ONE, 2014).

The target of test [1] is T1, acetylcholine binding protein (Ls-AChBP) (Lymnaea stagnalis, UniProt P58154). Description: radioligand binding, HEK-293 cell homogenate. Details: Ls-AChBP linked to a 5HT3 receptor ion channel (Ls-AChBP-5HT3 receptor chimera). The following applies: cited from earlier work.
For test [2], the target named is T1, acetylcholine binding protein (Ls-AChBP). Description: biochemical.

T1 sequence (P58154 20-229): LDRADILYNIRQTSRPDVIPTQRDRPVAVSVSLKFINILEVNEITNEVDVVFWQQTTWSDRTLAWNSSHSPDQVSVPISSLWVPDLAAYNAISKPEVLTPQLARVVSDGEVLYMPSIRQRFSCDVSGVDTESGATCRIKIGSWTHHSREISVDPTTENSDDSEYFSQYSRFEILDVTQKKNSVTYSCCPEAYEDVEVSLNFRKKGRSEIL

Take `Clc1ccc(C2CC3CCC2N3)cn1` (centres unmarked) [[3H]-epibatidine]: the Kd in test [1] is 0.097 nM.
The compound `CC(=O)OCC[N+](C)(C)C` [acetylcholine] had a Ki in test [2] of 1500 nM.

A word on the Kd: it is a measure of binding affinity in units of concentration. For orientation: Ki means the dissociation constant of the complex between target and ligand, obtained from inhibition or displacement.
